One test has as its system human B lymphocytes. Nature of the test: B-cell growth factor dependent proliferation of human B lymphocytes (BCGF). The conditions noted are these: BCGF stimulated, 140 h, 3H thymidine incorporation, Imexon and Ex. 1: mean ± standard deviation of n experiments, others: single tests No. 1-3; for IC50: Homo sapiens, Lymphocyte. In kind it is cell-based. The text has this: (d) B-cell growth factor dependent proliferation of human B lymphocytes (BCGF). The macrophage/monocytes are removed from the mononuclear cell fraction (see above) by adhesion to plastic petri dishes. T lymphocytes are separated by rosetting with neuraminidase-treated sheep erythrocytes. The enriched human B-lymphocyte population so obtained is adjusted to 3×10^5 /ml. 160 /μl of this suspension together with 10 /μl of BCGF (B cell growth factor) and 20 /μl of the substance dilution to be tested are incubated for a total of 140 h. 16 h before the end of incubation, ^3 H thymidine is added and analysis is carried out as already described. […] For the upper two compounds the means plus standard deviations from n experiments are shown.
For orientation: Dividing cells build labelled thymidine or BrdU into new DNA.

The subject of test [1] is Meth A fibrosaccoma cell line. Nature of the test: Tumor-growth Inhibition Test (TGI). In kind it is cell-based, mice. The conditions noted are these: 48 h, 3H thymidine incorporation, Imexon and Ex. 1: mean ± standard deviation of n experiments, others: single tests No. 1-3; for IC50: Mus musculus, Meth-A. The protocol: (b) Tumor-growth Inhibition Test
A Meth A fibrosaccoma cell line is passaged weekly as ascites in mice. After the ascites is punctured, the cells are washed and adjusted to a cell density of 5×10^4 vital cells/ml in the aforementioned medium. 200 /μl of this suspension are pipetted into the cavities of a microtitration plate and solution of the substances to be tested are added as above. 3 hours before the end of the 48 h incubation period ^3 H thymidine is added. The proliferation of the individual cultures is determined by the incorporated radioactive thymidine.
(§1) For the upper two compounds the means plus standard deviations from n experiments are shown.

In the next test the test system is human T-lymphocytes. Nature of the test: Interleukin-2 dependent proliferation of human T-lymphocytes (IL-2). In kind it is cell-based. Conditions: IL-2 stimulated, 48 h, 3H thymidine incorporation, Imexon and Ex. 1: mean ± standard deviation of n experiments, others: single tests No. 1-3; for IC50: Homo sapiens, T-lymphocyte. The protocol: (c) Interleukin-2 dependent proliferation of human T-lymphocytes (IL-2)
The mononuclear cell fraction is separated from heparinized human whole blood by means of a Ficoll gradient. After washing twice, the cell number is adjusted to 1×10^6 ml and incubation is carried out with 3 /μg/ml of Concanavalin A for 3 days. After washing twice, the cell number is set to 5×10^5 cells/ml. 160 /μl of this cell suspension are incubated with 20 /μl IL-2 and 20 /μl of a dilution of the test substance in microtitration plates for a total of 48 h. 4 hours before the end of incubation, ^3 H thymidine is added. The proliferation of the cultures is determined by means of the incorporated radioactivity.
as §1

A further test deals with Mice splenocytes. Briefly: Concanavalin-A induced lymphocyte proliferation (LPT). In kind it is cell-based. Here is the method:
(a) Concanavalin-A induced lymphocyte proliferation (LPT)
Mice splenocytes are adjusted in RPMI 1640 medium (with conventional additions of streptomycin, penicillin, L-glutamine and 10% fetal calf serum) to a cell density of 2×10^6 viable cells per ml. 200 μl of this cell suspension are mixed with 20 μl of an 11-fold concentrated solution of the substance to be tested. 0,5 /μg of Concanavalin A in 10 μl of phosphate buffered saline solution (PBS) are added as mitogenic stimulus to each culture. 5 hours before the end of the 48 h incubation period, the individual cultures receive 20 /μl of a 3H-thymidine solution and the proliferation of the cells is determined by means of incorporated radioactivity.
as §1

The mark [2] stands for this setting: Concanavalin A stimulated, 48 h, 3H-thymidine incorporation; Imexon and Ex. 1: mean ± standard deviation of n experiments, others: single tests No. 1-3.
Where [3] appears, read: Mus musculus, Splenocyte, Concanavalin A stimulated, 48 h, 3H-thymidine incorporation; Imexon and Ex. 1: mean ± standard deviation of n experiments, others: single tests No. 1-3.

Structures are written as SMILES. In brackets after ≈: the same amount, converted by molar mass. Several values for one entry are separate records, joined by “and”; a condition that tells them apart may be missing. Equal entries are not always repeated.

One may read the IC50 as the concentration that gives 50% inhibition.

As to `C=C1NC(=O)NC1=N` [Ex. 1, 4-Imino-5-methyleneimidazolidin-2-one], the IC50 is 1.9 µg/mL (≈ 17.1 µM) in the test with human B lymphocytes; more than 10.3 µg/mL in test [1]; 2.6 µg/mL (≈ 23.4 µM) in the test on human T-lymphocytes; 3.9 µg/mL (≈ 35.1 µM) in the test with Mice splenocytes (Mus musculus, Splenocyte, 48 h, Concanavalin A stimulated, 3H-thymidine incorporation, Imexon and Ex. 1: mean ± standard deviation of n experiments, others: single tests No. 1-3).
On to `CC=C1NC(=O)NC1=N` [Ex. 2, 4-imino-5-ethylideneimidazolidin2-one], for which the “IC50 TGI” value in test [1] is more than 30 µg⁻¹ mL⁻¹. Further, the results for the IC50 (in test [1]; in the test with human T-lymphocytes; in the test on Mice splenocytes (setting [3])) were 22.6 µg/mL (≈ 181 µM), more than 10 µg/mL and 12 µg/mL (≈ 95.9 µM), respectively. Also, the “IC50 LPT” value in the test on Mice splenocytes (setting [2]) is 11,1 /μg/ml.
As for `CC(C)=C1NC(=O)NC1=N` [Ex. 3, 4-Imino-5-isopropylideneimidazolidin-2-one], the “IC50 LPT” value with Mice splenocytes (setting [2]) was 20,7 /μg/ml and > 10 /μg/ml.
In the case of `C=C1NC(=O)N(Cc2ccccc2)C1=N` [Ex. 4, 3-Benzyl-4-imino-5-methyleneimidazolidin-2-one], the “IC50 BCGF” value with human B lymphocytes is recorded as 1,6 /μg/ml. For the same compound, the values for the IC50 (in the test with human B lymphocytes; in test [1]) were less than 3 µg/mL and 2.8 µg/mL (≈ 13.9 µM), respectively.
For `C=C1NC(=O)N(C)C1=N` [Ex. BV11, 3-methyl-4-imino-5-methyleneimidazolidin-2-one], in test [1], the “IC50 TGI” value is reported as 2,3 /μg/ml and inhibition was half-maximal at 4.2 µg/mL (≈ 33.6 µM) (IC50). This compound also had an IC50 in the test on human T-lymphocytes not above 3 µg/mL.
For the compound `C=C1NC(=O)N(CCC)C1=N` [Ex. BV12, 3-n-propyl-4-imino-5-methyleneimidazolidin-2-one], in the test on human B lymphocytes, the “IC50 BCGF” value is 2,6 /μg/ml and the IC50 amounted to 3.2 µg/mL (≈ 20.9 µM). For the same compound, it took 7.5 µg/mL (≈ 49 µM) to reach half-maximal inhibition in test [1] (IC50). Moreover, in the test with human T-lymphocytes, the IC50 came out at 5.1 µg/mL (≈ 33.3 µM) and the “IC50 IL 2” value is reported as 4,6 /μg/ml.
The compound `C=C1NC(=O)N(C2CCCCC2)C1=N` [Ex. BV14, 3-cyclohexyl-4-imino-5-methyleneimidazolidin-2-one] gave an IC50 with human B lymphocytes of less than 3 µg/mL.
`C=C1NC(=O)N(Cc2ccncc2)C1=N` [Ex. BV16, 3-(4-pyridylmethyl)-4-imino-5-methyleneimidazolidin2-one]: in test [1], the “IC50 TGI” value was 5,1 /μg/ml and 5,5 /μg/ml; half-maximal inhibition (IC50) was put at 3.9 µg/mL (≈ 19.3 µM). Moreover, in the test with human T-lymphocytes, the IC50 is 3.5 µg/mL (≈ 17.3 µM) and the “IC50 IL 2” value was 4,8 /μg/ml.
With `C=C1NC(=O)N(c2ccccc2)C1=N` [Ex. BV17, 3-phenyl-4-imino-5-methyleneimidazolidin-2-one], in test [1], the “IC50 TGI” value was 2,1 /μg/ml and 3,5 /μg/ml; the IC50 was less than 3 µg/mL.
With `N=C1NC(=O)N2CC12` (centres unmarked) [Imexon, 4-imino-1,3-diazabicyclo[3.1.0]hexan-2-one, reference compound], the IC50 came to 0.9 µg/mL (≈ 8.1 µM) in the test on human B lymphocytes, 11.3 µg/mL (≈ 102 µM) in test [1], 5.1 µg/mL (≈ 45.9 µM) with human T-lymphocytes and 6.3 µg/mL (≈ 56.7 µM) in the test on Mice splenocytes (setting [3]).

These data come from US4996219A, “Imidazolidine derivatives as immunosuppressives” (Boehringer Mannheim GmbH, priority 1988, dated 1991).
